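96-well plates; 48 h exposure; 5 concentrations. Endpoints by linear interpolation between flanking doses. Not reached: highest tested concentration assigned. TGI: concentration producing complete growth inhibition.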
Tests used:
Assay in all cases: NCI-60 cell line screen, 48 h
HS 578T breast = test system: HS 578T breast
MDA-MB-435 = test system: MDA-MB-435
786-0 renal = test system: 786-0 renal
HCT-15 colon = test system: HCT-15 colon
MOLT-4 leukemia = test system: MOLT-4 leukemia
OVCAR-4 ovarian = test system: OVCAR-4 ovarian
U251 CNS = test system: U251 CNS
ACHN renal = test system: ACHN renal
RPMI-8226 leukemia = test system: RPMI-8226 leukemia
NCI-H226 lung = test system: NCI-H226 lung
MALME-3M melanoma = test system: MALME-3M melanoma
BT-549 breast = test system: BT-549 breast
UACC-62 melanoma = test system: UACC-62 melanoma
NCI-H522 lung = test system: NCI-H522 lung
CAKI-1 renal = test system: CAKI-1 renal
COLO 205 colon = test system: COLO 205 colon
A498 renal = test system: A498 renal
HCT-116 colon = test system: HCT-116 colon
EKVX NSCLC = test system: EKVX NSCLC
M14 melanoma = test system: M14 melanoma

| Compound | TGI (HS 578T breast) [µM] | TGI (MDA-MB-435) [µM] | TGI (786-0 renal) [µM] | TGI (HCT-15 colon) [µM] | TGI (MOLT-4 leukemia) [µM] | TGI (OVCAR-4 ovarian) [µM] | TGI (U251 CNS) [µM] | TGI (ACHN renal) [µM] | TGI (RPMI-8226 leukemia) [µM] | TGI (NCI-H226 lung) [µM] | TGI (MALME-3M melanoma) [µM] | TGI (BT-549 breast) [µM] | TGI (UACC-62 melanoma) [µM] | TGI (NCI-H522 lung) [µM] | TGI (CAKI-1 renal) [µM] | TGI (COLO 205 colon) [µM] | TGI (A498 renal) [µM] | TGI (HCT-116 colon) [µM] | TGI (EKVX NSCLC) [µM] | TGI (M14 melanoma) [µM] |
| --- | --- | --- | --- | --- | --- | --- | --- | --- | --- | --- | --- | --- | --- | --- | --- | --- | --- | --- | --- | --- |
| CCCC[Si](CCCC)(CCCC)O[C@@H](/C=C/C(=O)OCC)[C@H](Cc1ccccc1)O[Si](CCCC)(CCCC)CCCC | > 100 | > 100 | > 100 | > 100 | > 100 | > 100 | > 100 | > 100 | > 100 | > 100 | > 100 | > 100 | > 100 | > 100 | > 100 | > 100 | > 100 | > 100 | > 100 | – |
| C/C(=C\[C@H]1C[C@@H]([C@@H]2CC[C@]34C[C@]23C=C[C@@H]2[C@@]3(C)CC=C5C[C@@H](c6ccccc6)OC[C@]5(C)[C@@H]3C[C@@H](O)[C@]24C)C(=O)O1)CO | > 72.2 | > 100 | > 100 | 25.3 | > 100 | > 62.7 | > 100 | 34.8 | > 96.4 | > 94.2 | 82.5 | 98.6 | > 71.2 | 89.3 | 28.3 | 5.11 | 5.8 | > 100 | > 52 | > 100 |
| O=C1c2cccnc2-c2nccc3ccnc1c23 | > 28.3 | 0.38 | 2.04 | 1.8 | 0.756 | 5.46 | 3.49 | 1.46 | 0.894 | 2.98 | 3.28 | 2.78 | 1.88 | 0.666 | 1.32 | 1.12 | 13 | 0.0784 | 3.75 | 2.43 |
| CCNC(=O)Cc1nc2c(=O)[nH]cnc2n1C1OC(CO)C(O)C1O (stereo unspecified) | > 100 | > 100 | > 100 | > 100 | > 100 | > 100 | > 100 | > 100 | > 100 | > 100 | > 100 | > 100 | > 100 | > 100 | > 100 | > 100 | > 100 | > 100 | > 100 | > 100 |
| CC1=C/C(=C(/c2ccc(O)c(C)c2)c2ccccc2C(=O)O)C=CC1=O | 52 | 33.3 | 33.7 | 42.7 | 43.1 | 33.9 | 32.1 | 32.2 | 46 | 44.5 | 46.8 | 39 | 30.9 | 42.7 | 32 | 34.3 | 32.8 | 32.8 | 36 | 32.5 |
| Clc1ccc(-c2cc(-c3nc4ccccc4[nH]3)no2)cc1 | 79.7 | 31.6 | 59 | 45 | 47.9 | 51.4 | – | 36.9 | 73.1 | 79.9 | 37.5 | 45.5 | 28.3 | 42.8 | 34.7 | 41.8 | 47.5 | 30.6 | 34 | 34.6 |
| CC(=O)O[C@H]1C(=O)[C@@]2(C)[C@H]([C@H](OC(=O)c3ccncc3)[C@]3(O)C[C@H](OC(=O)[C@H](O)[C@@H](NC(=O)c4ccccc4)c4ccccc4)C(C)=C1C3(C)C)[C@]1(OC(C)=O)CO[C@@H]1C[C@@H]2O | > 21 | 1.96 | > 25 | > 25 | > 25 | > 25 | > 23.3 | > 25 | 6.5 | > 25 | > 25 | > 25 | > 25 | 10.2 | > 25 | > 20.1 | > 25 | > 11.1 | > 25 | > 25 |
| O=C1C(c2c(O)[nH]c3ccc(S(=O)(=O)N(CCO)CCO)cc23)=Nc2ccccc21 | > 100 | > 100 | > 100 | > 100 | > 100 | > 100 | > 100 | > 100 | > 100 | > 100 | > 100 | > 100 | > 100 | > 100 | > 100 | > 100 | > 100 | > 100 | > 100 | > 100 |
| COC(=O)c1cc(/C=C2\Cc3cc4c(cc3C2=O)CCC4)cc2c1CCC2 | > 100 | > 100 | > 100 | > 100 | > 100 | > 100 | > 100 | > 100 | > 100 | > 100 | > 100 | > 100 | > 100 | > 100 | > 100 | > 100 | > 100 | > 100 | > 100 | > 100 |
| CCC(C)(C)c1ccc(Oc2cccc(C(=O)O)c2)cc1 | > 100 | > 100 | > 100 | > 100 | 70.7 | > 100 | > 100 | > 100 | 65.4 | > 100 | > 100 | > 100 | > 100 | 89.9 | > 100 | > 100 | > 100 | > 100 | > 100 | > 100 |
| N=C(N)c1ccc(-c2ccc(-c3ccc(C(=N)N)cc3)o2)cc1 | 56.9 | > 100 | 59.7 | > 100 | 77.5 | > 100 | 34.7 | > 100 | > 100 | > 100 | > 100 | > 100 | > 100 | > 100 | > 100 | 43.2 | > 100 | > 100 | 91.6 | > 100 |
| CC[C@]12C=CCN3CCC4(c5cc(N=Nc6ccc([N+](=O)[O-])cc6)c(OC)cc5N(C)[C@H]4[C@@](O)(C(=O)OC)[C@@H]1OC(C)=O)[C@@H]32 (stereo partly specified) | 77.8 | 31.6 | 25.1 | 57.8 | 13.1 | > 100 | 27.4 | 67.8 | 46.1 | 56.5 | 36.9 | > 100 | > 100 | – | 50 | 42.5 | 77.2 | 24.6 | 56.9 | 40.5 |
| CN(CCNC(=O)c1cc(-c2ccccc2)nc2ccccc12)CCNC(=O)c1cc(-c2ccccc2)nc2ccccc12 | 99.4 | 13.1 | 23.5 | > 100 | > 100 | > 100 | 30.9 | > 100 | > 100 | 55.5 | 4.09 | > 100 | 39.5 | > 47.5 | > 100 | 4.71 | 37.6 | > 46.4 | > 87.8 | 4.66 |
| CCCCC/C(=N\c1nc[nH]c1C(N)=O)OCC | > 100 | > 100 | > 100 | > 100 | > 100 | > 100 | > 100 | > 100 | > 100 | > 100 | > 100 | > 100 | > 100 | > 100 | > 100 | > 100 | > 100 | > 100 | > 100 | > 100 |
| O=C(NC1CCN(Cc2ccccc2)CC1)c1ccccc1I | 50.2 | 32.4 | 63.4 | 36.7 | 55.1 | > 100 | 63.3 | > 100 | > 100 | 72.8 | 31.6 | > 100 | 34.9 | 27.6 | > 100 | 34.8 | > 100 | 31.1 | > 100 | 33.4 |
| Cc1c(C)c(C)c(CSC(=N)N)c(C)c1C | 36.4 | 31.3 | 32.9 | 31.3 | 33 | 33.2 | 26.4 | 30.1 | 38.9 | 27.8 | 32.9 | 30.7 | 24.2 | 33 | 25.8 | 28.1 | 29.8 | 30 | 28 | 22.7 |
| COc1cc(CNC(=O)CCCCCCCCCCSSCCCCCCCCCCC(=O)NCc2ccc(O)c(OC)c2)ccc1O | > 10 | > 10 | > 10 | > 10 | > 10 | > 10 | > 10 | > 10 | > 10 | > 10 | > 10 | > 10 | > 10 | > 10 | > 10 | > 10 | > 10 | > 10 | > 10 | > 10 |
| Cc1ccc(S(=O)(=O)N/N=C2/CC[C@H](C(C)(C)C)C[C@@H]2C)cc1 | 45.1 | 32.7 | 31.8 | 32.7 | 31.1 | 20 | 33.5 | 30.3 | > 100 | 28.3 | 29.8 | 29.8 | 31.4 | – | 26.3 | 35.4 | 31.6 | 29.3 | 32.2 | 26.6 |
| COc1cc(C2c3cc4c(cc3OC(O)C2C)OCO4)cc(OC)c1O (stereo unspecified) | 46.4 | 5.22 | > 100 | > 57.4 | > 100 | > 100 | 62.8 | > 100 | > 100 | 64.3 | 29.4 | > 100 | 52.4 | 13.3 | > 100 | 45.8 | 80.6 | 38.3 | > 81.9 | > 60 |
| Cc1ccc2nc(Cl)c(/C=N/N3C(=O)/C(=C/Cc4ccco4)N=C3c3ccccc3)cc2c1 | > 86.2 | 5.29 | 47.3 | > 97.1 | > 92 | > 100 | > 100 | > 100 | 61.8 | > 100 | > 100 | > 90.9 | > 100 | 74 | > 100 | > 100 | > 100 | 39.3 | 98.7 | 73.9 |
| CC1(C)OC([C@H](O)CO)C([C@H]2NCCS2)O1 (stereo partly specified) | > 100 | > 100 | > 100 | > 100 | > 100 | > 100 | > 100 | > 100 | > 100 | > 100 | > 100 | > 100 | > 100 | > 100 | > 100 | > 100 | > 100 | > 100 | > 100 | > 100 |
| CC[C@@H]1C[C@@H](O)[C@@H]2[C@H](O)[C@H](O)CN2C1 | > 100 | > 100 | > 100 | > 100 | > 100 | > 100 | > 100 | > 100 | > 100 | > 100 | > 100 | > 100 | > 100 | > 100 | > 100 | > 100 | > 100 | > 100 | > 100 | > 100 |
| COc1cc2c(cc1OC)C(=O)/C(=C/c1ccccc1)C2 | > 100 | > 100 | > 100 | > 100 | 43.9 | > 100 | > 100 | > 100 | 71.6 | > 100 | > 100 | > 100 | > 67.7 | > 100 | > 100 | > 100 | 7.24 | > 100 | > 100 | > 100 |
